# In US10287641B2, “Lactobacillus apinorum and Lactobacillus mellifer from honeybees in medical, food and feed applications” (CONCELLAE AB, priority 2014, dated 2019):
# Tested on: clinical isolates of pathogenic wound bacteria and yeast
# Test: Dual culture overlay assays, whole pathogen panel and antibiotic controls
# Assay type: cell-based
# Settings: antibiotic 30 μg; pathogen of each column not given
# Method: Used pathogens (Table 2) were cultivated in Nutrient broth (Oxoid) at 37° C. during 24 hours prior to test in the antagonism assays.
# Dual Culture Overlay Assay Antimicrobial activity was measured by using dual culture overlay assay. The Lactobacillus apinorum and Lactobacillus mellifer strains (Table 2) were put into a filter disk and placed onto supplemented MRS agar plates followed by overnight incubation at 35° C.
row,Compound,"diameter of the inhibition zone, antibiotic control"
1,"O=C(N[C@H](CO)[C@H](O)c1ccc([N+](=O)[O-])cc1)C(Cl)Cl [Cl, Chloramphenicol]",^S19 millimetres
2,"CO/N=C(\C(=O)N[C@@H]1C(=O)N2C(C(=O)O)=C(COC(N)=O)CS[C@H]12)c1ccco1 [Cx, Cefuroxime sodium]",28 millimetres
